# Assays:
# Assay type in all cases: in vivo
# corn (Zea mays) = assay: Test A postemergence; details: Zea mays, post-emergence, 240 h, postemergence
# Method in brief: (§1)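 Visual injury, scored on a 0–100 scale relative to untreated controls, was recorded about 10 d after application. Treatments were a preemergence soil spray over planted seeds or a postemergence spray on plants at the one- to two-leaf stage, 2 to 10 cm tall, all in loam soil–sand blend in the greenhouse.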
# [1] = system: pigweed (Amaranthus retroflexus); assay: Test A postemergence; details: Amaranthus retroflexus, post-emergence, 240 h, postemergence
# Method in brief: as §1
# [2] = system: giant foxtail (Setaria faberii); assay: Test A postemergence; details: Setaria faberi, post-emergence, 240 h, postemergence
# Method in brief: as §1
# [3] = system: barnyardgrass (Echinochloa crus-galli); assay: Test A postemergence; details: Echinochloa crus-galli, post-emergence, 240 h, postemergence
# Method in brief: as §1
# [4] = system: Galium (catchweed bedstraw, Galium aparine); assay: Test A postemergence; details: Galium, post-emergence, 240 h, postemergence
# Method in brief: as §1
# [5] = system: ryegrass, Italian (Italian ryegrass, Lolium multiflorum); assay: Test A postemergence; details: Lolium multiflorum, post-emergence, 240 h, postemergence
# Method in brief: as §1
# Kochia (Kochia scoparia) [6] = assay: Test A postemergence; details: Bassia scoparia, post-emergence, 240 h, postemergence
# Method in brief: as §1
# [7] = system: blackgrass (Alopecurus myosuroides); assay: Test A postemergence; details: Alopecurus myosuroides, post-emergence, 240 h, postemergence
# Method in brief: as §1
# [8] = system: wheat (Triticum aestivum); assay: Test A postemergence; details: Triticum aestivum, post-emergence, 240 h, 125 g ai/ha, postemergence, visual injury vs untreated controls after approx. 10 d; 0 = no effect, 100 = complete control; read-out: Wheat plant response rating (0 to 100 scale)
# Method in brief: as §1
# [9] = system: ragweed (common ragweed, Ambrosia elatior); assay: Test A postemergence; details: Ambrosia artemisiifolia, post-emergence, 240 h, postemergence
# Method in brief: as §1
# [10] = system: pigweed (Amaranthus retroflexus); assay: Test A preemergence; details: Amaranthus retroflexus, pre-emergence, 240 h, preemergence, 0 to 100 scale where 0 is no effect and 100 is complete control, read-out: Pigweed plant response rating
# [11] = system: giant foxtail (Setaria faberii); assay: Test A preemergence; details: Setaria faberi, pre-emergence, 240 h, preemergence, 0 to 100 scale where 0 is no effect and 100 is complete control, read-out: Foxtail, Giant plant response rating
# Method in brief: as §1
# [12] = system: ryegrass, Italian (Italian ryegrass, Lolium multiflorum); assay: Test A preemergence; details: Lolium multiflorum, pre-emergence, 240 h, preemergence, 0 to 100 scale where 0 is no effect and 100 is complete control, read-out: Ryegrass, Italian plant response rating
# Method in brief: as §1
# Kochia (Kochia scoparia) [13] = assay: Test A preemergence; details: Bassia scoparia, pre-emergence, 240 h, preemergence, 0 to 100 scale where 0 is no effect and 100 is complete control, read-out: Kochia plant response rating
# Method in brief: as §1
# [14] = system: ragweed (common ragweed, Ambrosia elatior); assay: Test A preemergence; details: Ambrosia artemisiifolia, pre-emergence, 240 h, 500 g ai/ha, preemergence; 0 to 100 scale where 0 is no effect and 100 is complete control; read-out: Ragweed plant response rating
# Method in brief: as §1
# [15] = 125 g ai/ha, visual injury rating, approximately 10 d
structure (smiles),measurement,setting,value
Cc1cc([C@H]2CNC(=O)[C@@H]2C(=O)Nc2ccccc2C(F)(F)F)ccc1Cl [Compound 1245],plant injury at 125 g/ha,"corn (Zea mays); 125 g ai/ha, visual injury vs untreated controls after approx. 10 d, 0 = no effect, 100 = complete control, read-out: Corn plant response rating (0 to 100 scale)",0%
same,plant injury at 500 g/ha,"corn (Zea mays); 500 g ai/ha, 0 to 100 scale, 0 is no effect, 100 is complete control, read-out: Corn plant response rating",0%
same,pest or weed control at 125 g/ha,"[1]; 125 g ai/ha, visual injury vs untreated controls after approx. 10 d, 0 = no effect, 100 = complete control, read-out: Pigweed plant response rating (0 to 100 scale)",0%
same,pest or weed control at 500 g/ha,"[1]; 500 g ai/ha, 0 to 100 scale, 0 is no effect, 100 is complete control, read-out: Pigweed plant response rating",0%
same,pest or weed control at 125 g/ha,"[2]; 125 g ai/ha, visual injury vs untreated controls after approx. 10 d, 0 = no effect, 100 = complete control, read-out: Foxtail, Giant plant response rating (0 to 100 scale)",20%
same,pest or weed control at 500 g/ha,"[2]; 500 g ai/ha, 0 to 100 scale, 0 is no effect, 100 is complete control, read-out: Foxtail, Giant plant response rating",60%
same,pest or weed control at 125 g/ha,"[3]; 125 g ai/ha, visual injury vs untreated controls after approx. 10 d, 0 = no effect, 100 = complete control, read-out: Barnyardgrass plant response rating (0 to 100 scale)",40%
same,pest or weed control at 500 g/ha,"[3]; 500 g ai/ha, 0 to 100 scale, 0 is no effect, 100 is complete control, read-out: Barnyardgrass plant response rating",90%
same,pest or weed control at 125 g/ha,"[4]; 125 g ai/ha, visual injury vs untreated controls after approx. 10 d, 0 = no effect, 100 = complete control, read-out: Galium plant response rating (0 to 100 scale)",30%
same,pest or weed control at 500 g/ha,"[4]; 500 g ai/ha, 0 to 100 scale, 0 is no effect, 100 is complete control, read-out: Galium plant response rating",50%
same,pest or weed control at 125 g/ha,"[5]; 125 g ai/ha, visual injury vs untreated controls after approx. 10 d, 0 = no effect, 100 = complete control, read-out: Ryegrass, Italian plant response rating (0 to 100 scale)",0%
same,pest or weed control at 500 g/ha,"[5]; 500 g ai/ha, 0 to 100 scale, 0 is no effect, 100 is complete control, read-out: Ryegrass, Italian plant response rating",0%
same,pest or weed control at 125 g/ha,"Kochia (Kochia scoparia) [6]; 125 g ai/ha, visual injury vs untreated controls after approx. 10 d, 0 = no effect, 100 = complete control, read-out: Kochia plant response rating (0 to 100 scale)",0%
same,pest or weed control at 500 g/ha,"Kochia (Kochia scoparia) [6]; 500 g ai/ha, 0 to 100 scale, 0 is no effect, 100 is complete control, read-out: Kochia plant response rating",40%
same,pest or weed control at 125 g/ha,"[7]; 125 g ai/ha, visual injury vs untreated controls after approx. 10 d, 0 = no effect, 100 = complete control, read-out: Blackgrass plant response rating (0 to 100 scale)",30%
same,pest or weed control at 500 g/ha,"[7]; 500 g ai/ha, 0 to 100 scale, 0 is no effect, 100 is complete control, read-out: Blackgrass plant response rating",60%
same,plant injury at 125 g/ha,[8],0%
same,pest or weed control at 125 g/ha,"[9]; 125 g ai/ha, visual injury vs untreated controls after approx. 10 d, 0 = no effect, 100 = complete control, read-out: Ragweed plant response rating (0 to 100 scale)",0%
same,pest or weed control at 500 g/ha,"[9]; 500 g ai/ha, 0 to 100 scale, 0 is no effect, 100 is complete control, read-out: Ragweed plant response rating",50%
same,pest or weed control at 125 g/ha,[10]; [15],0%
same,pest or weed control at 500 g/ha,[10]; 500 g ai/ha,0%
same,pest or weed control at 125 g/ha,[11]; [15],80%
same,pest or weed control at 500 g/ha,[11]; 500 g ai/ha,90%
same,pest or weed control at 125 g/ha,[12]; [15],0%
same,pest or weed control at 500 g/ha,[12]; 500 g ai/ha,60%
same,pest or weed control at 125 g/ha,Kochia (Kochia scoparia) [13]; [15],0%
same,pest or weed control at 500 g/ha,Kochia (Kochia scoparia) [13]; 500 g ai/ha,20%
same,pest or weed control at 500 g/ha,[14],20%
